Laboratory results as given in patent US6268537A, “Method of synthesis of lithium substituted borohydride reagents and method of synthesis of reactive lithium hydride” (priority 1999, dated 2001).

Test: solubility of LiH in THF
Details: room temperature

## [H-].[Li+] [LiH, lithium hydride]
  solubility of LiH in THF: less than 0.00089 mol per liter
